System: Elongator complex protein 1 (ELP1, also referred to as IKBKAP)
Experiment: IKBKAP-HTRF assay (IKBKAP protein in lysates of FD patient-derived fibroblasts)
Format: cell-based, human
Settings: 48 hours incubation, 7-point concentration curve
Outline: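 Sandwich HTRF with two labelled anti-IKAP antibodies (overnight, 4 °C) measured IKBKAP in lysates of FD patient fibroblasts. Cells were exposed to compound for 48 h at 37 °C (7-point curve, 3.16-fold steps, triplicates). EC2x is the dose doubling IKBKAP versus DMSO control; MFI is sample ΔF divided by vehicle ΔF.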

Row | SMILES | EC2x for IKBKAP protein expression (concentration producing two times the amount of IKBKAP protein vs DMSO vehicle control) | MFI (maximum fold increase in IKBKAP protein abundance relative to the vehicle control)
1 | Cc1c(C[C@@H](N)CCF)sc2c(NCc3ccco3)cc(Cl)nc12 [Compound 95, 2-[(2S)-2-amino-4-fluorobutyl]-5-chloro-N-[(furan-2-yl)methyl]-3-methylthieno[3,2-b]pyridin-7-amine] | ***** (≤0.005 μM is indicated by five stars (*****)) | ***** (>4.9 is indicated by five stars (*****))
2 | C[C@H](N)Cc1sc2c(NCc3nccs3)cc(Cl)nc2c1C1CC1 [Compound 96, 2-[(2S)-2-aminopropyl]-5-chloro-3-cyclopropyl-N-[(1,3-thiazol-2-yl)methyl]thieno[3,2-b]pyridin-7-amine] | **** (between >0.005 μM and ≤0.02 μM is indicated by four stars (****)) | ***** (>4.9 is indicated by five stars (*****))
3 | N[C@@H](CCF)Cc1sc2c(NCc3ccco3)cc(Cl)nc2c1Br [Compound 97, 2-[(2S)-2-amino-4-fluorobutyl]-3-bromo-5-chloro-N-[(furan-2-yl)methyl]thieno[3,2-b]pyridin-7-amine] | ***** (≤0.005 μM is indicated by five stars (*****)) | ***** (>4.9 is indicated by five stars (*****))
4 | N[C@@H](CCF)Cc1sc2c(NCc3cccs3)cc(Cl)nc2c1Cl [Compound 98, 2-[(2S)-2-amino-4-fluorobutyl]-3,5-dichloro-N-[(thiophen-2-yl)methyl]thieno[3,2-b]pyridin-7-amine] | ***** (≤0.005 μM is indicated by five stars (*****)) | ***** (>4.9 is indicated by five stars (*****))
5 | Cc1c(C[C@@H](N)CCF)sc2c(NCc3nccs3)cc(Cl)nc12 [Compound 99, 2-[(2S)-2-amino-4-fluorobutyl]-5-chloro-3-methyl-N-[(1,3-thiazol-2-yl)methyl]thieno[3,2-b]pyridin-7-amine] | ***** (≤0.005 μM is indicated by five stars (*****)) | ***** (>4.9 is indicated by five stars (*****))
6 | N[C@@H](CCO)Cc1sc2c(NCc3ccccc3F)cc(Cl)nc2c1Br [Compound 100, (3S)-3-amino-4-(3-bromo-5-chloro-7-{[(2-fluorophenyl)methyl]amino}thieno[3,2-b]pyridin-2-yl)butan-1-ol] | ***** (≤0.005 μM is indicated by five stars (*****)) | ***** (>4.9 is indicated by five stars (*****))
7 | C[C@H](N)Cc1sc2c(NCc3cccs3)cc(C#N)nc2c1Br [Compound 101, 2-[(2S)-2-aminopropyl]-3-bromo-7-{[(thiophen-2-yl)methyl]amino}thieno[3,2-b]pyridine-5-carbonitrile] | ***** (≤0.005 μM is indicated by five stars (*****)) | ***** (>4.9 is indicated by five stars (*****))
8 | C[C@H](N)Cc1sc2c(NCc3cccs3)cc(C#N)nc2c1C#N [Compound 102, 2-[(2S)-2-aminopropyl]-7-{[(thiophen-2-yl)methyl]amino}thieno[3,2-b]pyridine-3,5-dicarbonitrile] | ***** (≤0.005 μM is indicated by five stars (*****)) | ***** (>4.9 is indicated by five stars (*****))
9 | N#CC[C@H](N)Cc1sc2c(NCc3ccco3)cc(Cl)nc2c1Br [Compound 103, (3S)-3-amino-4-(3-bromo-5-chloro-7-{[(furan-2-yl)methyl]amino}thieno[3,2-b]pyridin-2-yl)butanenitrile] | **** (between >0.005 μM and ≤0.02 μM is indicated by four stars (****)) | **** (between >3.9 and ≤4.9 is indicated by four stars (****))
10 | CSC[C@H](N)Cc1sc2c(NCc3ccco3)cc(Cl)nc2c1C [Compound 104, 2-[(2R)-2-amino-3-(methylsulfanyl)propyl]-5-chloro-N-[(furan-2-yl)methyl]-3-methylthieno[3,2-b]pyridin-7-amine] | ***** (≤0.005 μM is indicated by five stars (*****)) | ***** (>4.9 is indicated by five stars (*****))
11 | Cc1c(C[C@@H](N)CC#N)sc2c(NCc3cccs3)cc(Cl)nc12 [Compound 105, (3S)-3-amino-4-(5-chloro-3-methyl-7-{[(thiophen-2-yl)methyl]amino}thieno[3,2-b]pyridin-2-yl)butanenitrile] | ***** (≤0.005 μM is indicated by five stars (*****)) | ***** (>4.9 is indicated by five stars (*****))
12 | N#CC[C@H](N)Cc1sc2c(NCc3cccs3)cc(Cl)nc2c1Cl [Compound 106, (3S)-3-amino-4-(3,5-dichloro-7-{[(thiophen-2-yl)methyl]amino}thieno[3,2-b]pyridin-2-yl)butanenitrile] | ***** (≤0.005 μM is indicated by five stars (*****)) | ***** (>4.9 is indicated by five stars (*****))
13 | N[C@H](Cc1sc2c(NCc3cccs3)cc(Cl)nc2c1Br)CC(F)F [Compound 107, 2-[(2S)-2-amino-4,4-difluorobutyl]-3-bromo-5-chloro-N-[(thiophen-2-yl)methyl]thieno[3,2-b]pyridin-7-amine] | ***** (≤0.005 μM is indicated by five stars (*****)) | ***** (>4.9 is indicated by five stars (*****))
14 | Cc1c(C[C@@H](N)CS(C)(=O)=O)sc2c(NCc3ccco3)cc(Cl)nc12 [Compound 108, 2-[(2R)-2-amino-3-(methanesulfonyl)propyl]-5-chloro-N-[(furan-2-yl)methyl]-3-methylthieno[3,2-b]pyridin-7-amine] | **** (between >0.005 μM and ≤0.02 μM is indicated by four stars (****)) | ***** (>4.9 is indicated by five stars (*****))
15 | C[C@H](N)Cc1sc2c(NCc3ccco3)cc(Cl)nc2c1C#N [Compound 109, 2-[(2S)-2-aminopropyl]-5-chloro-7-{[(furan-2-yl)methyl]amino}thieno[3,2-b]pyridine-3-carbonitrile] | ***** (≤0.005 μM is indicated by five stars (*****)) | ***** (>4.9 is indicated by five stars (*****))
16 | C[C@H](N)Cc1sc2c(NCc3cccs3)cc(Cl)nc2c1C#N [Compound 110, 2-[(2S)-2-aminopropyl]-5-chloro-7-{[(thiophen-2-yl)methyl]amino}thieno[3,2-b]pyridine-3-carbonitrile] | ***** (≤0.005 μM is indicated by five stars (*****)) | **** (between >3.9 and ≤4.9 is indicated by four stars (****))
